# Laboratory results taken from US20230287021A1, “COMPOUNDS, COMPOSITIONS AND METHODS FOR STABILIZING TRANSTHYRETIN AND INHIBITING TRANSTHYRETIN MISFOLDING” (Protego Biopharma, Inc., priority 2020, published 2023).
# Structures can show the parent of a compound that is named as a salt.
# How the values were obtained:
# [1] = In vitro rat liver S9 stability assay, formation of tafamidis; type: in vitro ADME; conditions: rat liver S9, 37° C., 1 µM test compound
# Protocol: The test compound was added to liver S9 and incubated at 37° C. in a water bath at a concentration of 1 µM. At each time point (0, 5, 10, 20, 30 and 60 min), stop solution (tolbutamide plus labetalol) was added to precipitate protein and mixed thoroughly. After centrifugation, an aliquot of supernatant was analyzed by LC-MS/MS. The percentage of formation of active agent was calculated at each time point.
# [2] = In vitro rat plasma stability assay, formation of tafamidis; type: in vitro ADME; conditions: 37° C., 2 µM test compound
# Protocol: A stability assay in plasma (rat or human) was used to evaluate the ability of a compound provided herein to convert to an active TTR stabilizer. The test compound was added to plasma and incubated at 37° C. in a water bath at a concentration of 2 µM. At each time point (0, 10, 30, 60 and 120 min or 0, 60, 120, 180 and 240 min), stop solution (tolbutamide plus labetalol) was added to precipitate protein and mixed thoroughly. After centrifugation, an aliquot of supernatant was analyzed by LC-MS/MS. The percentage of formation of active agent was calculated at each time point.
Formation of tafamidis at 60 min [1],Formation of tafamidis at 120 min [2],SMILES
A (A is <25%),A (A is <25%),"O=C(OC1CCNC1)c1ccc2nc(-c3cc(Cl)cc(Cl)c3)oc2c1 (centres unmarked) [Compound 17, pyrrolidin-3-yl 2-(3,5-dichlorophenyl)benzo[d]oxazole-6-carboxylate hydrochloride]"
A (A is <25%),A (A is <25%),"O=C(OC1CC2CCC1CN2)c1ccc2nc(-c3cc(Cl)cc(Cl)c3)oc2c1 (centres unmarked) [Compound 27, 2-azabicyclo[2.2.2]octan-5-yl 2-(3,5-dichlorophenyl)benzo [d]oxazole-6-carboxylate hydrochloride]"
A (A is <25%),A (A is <25%),"CN1CC2CCC1CC2OC(=O)c1ccc2nc(-c3cc(Cl)cc(Cl)c3)oc2c1 (centres unmarked) [Compound 32, 2-methyl-2-azabicyclo[2.2.2]octan-5-yl 2-(3,5-dichlorophenyl) benzo [d]oxazole-6-carboxylate]"
C (C is ≥50 to <75%),A (A is <25%),"O=C(OCCN1CCCCC1)c1ccc2nc(-c3cc(Cl)cc(Cl)c3)oc2c1 [Compound 34, 2-(piperidin-1-yl)ethyl 2-(3,5-dichlorophenyl)benzo[d] oxazole-6-carboxylate]"
–,D (D is ≥75%),"CN1C[C@@H](O)[C@H](OC(=O)c2ccc3nc(-c4cc(Cl)cc(Cl)c4)oc3c2)C1 [Compound 56, (3R,4R)-4-hydroxy-1-methylpyrrolidin-3-yl 2-(3,5-dichlorophenyl)benzo[d] oxazole-6-carboxylate]"
C (C is ≥50 to <75%),D (D is ≥75%),"CN1CCCC1COC(=O)c1ccc2nc(-c3cc(Cl)cc(Cl)c3)oc2c1 (centres unmarked) [Compound 61, (1-methylpyrrolidin-2-yl)methyl 2-(3,5-dichlorophenyl)benzo [d] oxazole-6-carboxylate]"
–,B (B is ≥25 to <50%),CC(C)(C)OC(=O)N[C@H](Cc1cccc(OC(=O)c2ccc3nc(-c4cc(Cl)cc(Cl)c4)oc3c2)c1)C(=O)OCc1ccccc1 [Compound 63]
–,A (A is <25%),"O=C(NCCO)c1ccc2nc(-c3cc(Cl)cc(Cl)c3)oc2c1 [Compound 64, 2-(3,5-dichlorophenyl)-N-(2-hydroxyethyl)benzo[d]oxazole-6-carboxamide]"
–,A (A is <25%),"CN(CCO)C(=O)c1ccc2nc(-c3cc(Cl)cc(Cl)c3)oc2c1 [Compound 65, 2-(3,5-dichlorophenyl)-N-(2-hydroxyethyl)-N-methylbenzo [d] oxazole-6-carboxamide]"
–,A (A is <25%),"O=C(NCC(F)(F)F)c1ccc2nc(-c3cc(Cl)cc(Cl)c3)oc2c1 [Compound 67, 2-(3,5-dichlorophenyl)-N-(2,2,2-trifluoroethyl)benzo[d] oxazole-6-carboxamide]"
–,A (A is <25%),"O=C(NCCCO)c1ccc2nc(-c3cc(Cl)cc(Cl)c3)oc2c1 [Compound 68, 2-(3,5-dichlorophenyl)-N-(3-hydroxypropyl)benzo[d]oxazole-6-carboxamide]"
–,A (A is <25%),CC(C)(C)OC(=O)N[C@H](Cc1ccc(OC(=O)c2ccc3nc(-c4cc(Cl)cc(Cl)c4)oc3c2)cc1)C(=O)OCc1ccccc1 [Compound 69]
–,B (B is ≥25 to <50%),CC(C)(C)OC(=O)N[C@H](Cc1ccc(OC(=O)c2ccc3nc(-c4cc(Cl)cc(Cl)c4)oc3c2)cc1)C(=O)O [Compound 70]
–,A (A is <25%),N[C@H](Cc1ccc(OC(=O)c2ccc3nc(-c4cc(Cl)cc(Cl)c4)oc3c2)cc1)C(=O)O [Compound 71]
–,B (B is ≥25 to <50%),CC(C)(C)OC(=O)N[C@H](Cc1cccc(OC(=O)c2ccc3nc(-c4cc(Cl)cc(Cl)c4)oc3c2)c1)C(=O)O [Compound 72]
D (D is ≥75%),B (B is ≥25 to <50%),O=C(OCCN1CCOCC1)c1ccc2nc(-c3cc(Cl)cc(Cl)c3)oc2c1 [Compound 80]

Formation of tafamidis at 60 min [1],Formation of tafamidis at 120 min [2],SMILES
–,D (D is ≥75%),O=C(OCCCN1CCOCC1)c1ccc2nc(-c3cc(Cl)cc(Cl)c3)oc2c1 [Compound 81]
–,D (D is ≥75%),O=C(OCCCN1CCNCC1)c1ccc2nc(-c3cc(Cl)cc(Cl)c3)oc2c1 [Compound 83]
–,D (D is ≥75%),O=C(OCCCN1CCS(=O)(=O)CC1)c1ccc2nc(-c3cc(Cl)cc(Cl)c3)oc2c1 [Compound 84]
D (D is ≥75%),D (D is ≥75%),O=C(OCC1CCCO1)c1ccc2nc(-c3cc(Cl)cc(Cl)c3)oc2c1 (centres unmarked) [Compound 86]
D (D is ≥75%),C (C is ≥50 to <75%),O=C(OCc1ncc[nH]1)c1ccc2nc(-c3cc(Cl)cc(Cl)c3)oc2c1 [Compound 89]
–,C (C is ≥50 to <75%),O=C(OCc1ncco1)c1ccc2nc(-c3cc(Cl)cc(Cl)c3)oc2c1 [Compound 91]
A (A is <25%),B (B is ≥25 to <50%),CC(C)(C)N1CCC(OC(=O)c2ccc3nc(-c4cc(Cl)cc(Cl)c4)oc3c2)C1 (centres unmarked) [Compound 92]
–,B (B is ≥25 to <50%),CN1CCN(CCOC(=O)c2ccc3nc(-c4cc(Cl)cc(Cl)c4)oc3c2)CC1 [Compound 93]
–,C (C is ≥50 to <75%),CN1CCN(CCCOC(=O)c2ccc3nc(-c4cc(Cl)cc(Cl)c4)oc3c2)CC1 [Compound 94]
–,D (D is ≥75%),O=C(OC1CCOC1)c1ccc2nc(-c3cc(Cl)cc(Cl)c3)oc2c1 (centres unmarked) [Compound 95]
–,A (A is <25%),O=C(OCCC1CCCO1)c1ccc2nc(-c3cc(Cl)cc(Cl)c3)oc2c1 (centres unmarked) [Compound 97]
D (D is ≥75%),C (C is ≥50 to <75%),Cn1ccnc1COC(=O)c1ccc2nc(-c3cc(Cl)cc(Cl)c3)oc2c1 [Compound 98]
D (D is ≥75%),B (B is ≥25 to <50%),O=C(OCCn1ccnc1)c1ccc2nc(-c3cc(Cl)cc(Cl)c3)oc2c1 [Compound 99]
–,D (D is ≥75%),O=C(OCCCC1CCOC1)c1ccc2nc(-c3cc(Cl)cc(Cl)c3)oc2c1 (centres unmarked) [Compound 100]
–,C (C is ≥50 to <75%),O=C(OCCCC1CCCO1)c1ccc2nc(-c3cc(Cl)cc(Cl)c3)oc2c1 (centres unmarked) [Compound 101]
D (D is ≥75%),B (B is ≥25 to <50%),O=C(OCc1ccccn1)c1ccc2nc(-c3cc(Cl)cc(Cl)c3)oc2c1 [Compound 103]

SMILES,Formation of tafamidis at 60 min [1],Formation of tafamidis at 120 min [2]
"CC(C)(C)OC(=O)N1CC2CCC1CC2OC(=O)c1ccc2nc(-c3cc(Cl)cc(Cl)c3)oc2c1 (centres unmarked) [Compound 26, 2-(tert-butoxycarbonyl)-2-azabicyclo[2.2.2]octan-5-yl 2-(3,5-dichlorophenyl) benzo [d] oxazole-6-carboxylate]",A (A is <25%),A (A is <25%)
"O=C(OCCC1CCOC1)c1ccc2nc(-c3cc(Cl)cc(Cl)c3)oc2c1 (centres unmarked) [Compound 96, 2-(tetrahydrofuran-3-yl)ethyl 2-(3,5-dichlorophenyl)benzo[d] oxazole-6-carboxylate]",–,C (C is ≥50 to <75%)
